# Key:
# [1] = biological target: Cyclin-dependent kinase-like 3 (Homo sapiens) (UniProt Q8IVW4); assay: Inhibition of human recombinant CDKL3 at 40 nM in presence of ATP by radiometric assay relative to control
# [2] = biological target: T1, Serine/threonine-protein kinase Nek9 (Homo sapiens) (UniProt Q8TD19); assay: Inhibition of human recombinant NEK9 at 40 nM related to control ULK1
# T1 sequence (whole entry): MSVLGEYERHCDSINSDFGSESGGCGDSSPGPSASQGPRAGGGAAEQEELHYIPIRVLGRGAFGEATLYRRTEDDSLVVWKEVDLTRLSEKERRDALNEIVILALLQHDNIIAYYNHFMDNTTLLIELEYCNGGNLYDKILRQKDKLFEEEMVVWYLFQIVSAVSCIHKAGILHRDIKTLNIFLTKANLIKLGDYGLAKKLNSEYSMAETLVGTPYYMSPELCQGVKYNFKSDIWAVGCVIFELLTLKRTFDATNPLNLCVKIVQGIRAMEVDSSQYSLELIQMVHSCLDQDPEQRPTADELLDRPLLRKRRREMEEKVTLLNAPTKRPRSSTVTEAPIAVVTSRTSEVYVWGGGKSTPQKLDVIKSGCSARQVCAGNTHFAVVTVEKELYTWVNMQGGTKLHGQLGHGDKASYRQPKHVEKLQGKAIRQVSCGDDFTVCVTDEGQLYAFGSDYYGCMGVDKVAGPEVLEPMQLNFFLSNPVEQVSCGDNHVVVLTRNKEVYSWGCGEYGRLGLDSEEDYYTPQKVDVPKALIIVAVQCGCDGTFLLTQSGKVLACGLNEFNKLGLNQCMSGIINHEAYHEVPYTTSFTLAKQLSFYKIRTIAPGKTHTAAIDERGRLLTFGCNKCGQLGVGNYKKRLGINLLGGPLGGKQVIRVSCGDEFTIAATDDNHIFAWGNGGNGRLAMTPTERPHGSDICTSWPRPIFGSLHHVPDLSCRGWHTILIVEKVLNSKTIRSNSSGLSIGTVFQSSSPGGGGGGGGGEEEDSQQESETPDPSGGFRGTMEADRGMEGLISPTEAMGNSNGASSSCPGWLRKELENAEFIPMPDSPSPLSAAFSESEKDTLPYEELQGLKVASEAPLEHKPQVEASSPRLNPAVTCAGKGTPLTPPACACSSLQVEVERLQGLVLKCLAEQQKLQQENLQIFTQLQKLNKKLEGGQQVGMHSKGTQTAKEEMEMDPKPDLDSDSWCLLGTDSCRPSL
# [3] = biological target: Vascular endothelial growth factor receptor 3 (Homo sapiens) (UniProt P35916); assay: Inhibition of human recombinant FLT4 at 500 nM in presence of ATP by radiometric assay relative to control
# Vascular endothelial growth factor receptor 3 (Homo sapiens), sequence (P35916 whole entry): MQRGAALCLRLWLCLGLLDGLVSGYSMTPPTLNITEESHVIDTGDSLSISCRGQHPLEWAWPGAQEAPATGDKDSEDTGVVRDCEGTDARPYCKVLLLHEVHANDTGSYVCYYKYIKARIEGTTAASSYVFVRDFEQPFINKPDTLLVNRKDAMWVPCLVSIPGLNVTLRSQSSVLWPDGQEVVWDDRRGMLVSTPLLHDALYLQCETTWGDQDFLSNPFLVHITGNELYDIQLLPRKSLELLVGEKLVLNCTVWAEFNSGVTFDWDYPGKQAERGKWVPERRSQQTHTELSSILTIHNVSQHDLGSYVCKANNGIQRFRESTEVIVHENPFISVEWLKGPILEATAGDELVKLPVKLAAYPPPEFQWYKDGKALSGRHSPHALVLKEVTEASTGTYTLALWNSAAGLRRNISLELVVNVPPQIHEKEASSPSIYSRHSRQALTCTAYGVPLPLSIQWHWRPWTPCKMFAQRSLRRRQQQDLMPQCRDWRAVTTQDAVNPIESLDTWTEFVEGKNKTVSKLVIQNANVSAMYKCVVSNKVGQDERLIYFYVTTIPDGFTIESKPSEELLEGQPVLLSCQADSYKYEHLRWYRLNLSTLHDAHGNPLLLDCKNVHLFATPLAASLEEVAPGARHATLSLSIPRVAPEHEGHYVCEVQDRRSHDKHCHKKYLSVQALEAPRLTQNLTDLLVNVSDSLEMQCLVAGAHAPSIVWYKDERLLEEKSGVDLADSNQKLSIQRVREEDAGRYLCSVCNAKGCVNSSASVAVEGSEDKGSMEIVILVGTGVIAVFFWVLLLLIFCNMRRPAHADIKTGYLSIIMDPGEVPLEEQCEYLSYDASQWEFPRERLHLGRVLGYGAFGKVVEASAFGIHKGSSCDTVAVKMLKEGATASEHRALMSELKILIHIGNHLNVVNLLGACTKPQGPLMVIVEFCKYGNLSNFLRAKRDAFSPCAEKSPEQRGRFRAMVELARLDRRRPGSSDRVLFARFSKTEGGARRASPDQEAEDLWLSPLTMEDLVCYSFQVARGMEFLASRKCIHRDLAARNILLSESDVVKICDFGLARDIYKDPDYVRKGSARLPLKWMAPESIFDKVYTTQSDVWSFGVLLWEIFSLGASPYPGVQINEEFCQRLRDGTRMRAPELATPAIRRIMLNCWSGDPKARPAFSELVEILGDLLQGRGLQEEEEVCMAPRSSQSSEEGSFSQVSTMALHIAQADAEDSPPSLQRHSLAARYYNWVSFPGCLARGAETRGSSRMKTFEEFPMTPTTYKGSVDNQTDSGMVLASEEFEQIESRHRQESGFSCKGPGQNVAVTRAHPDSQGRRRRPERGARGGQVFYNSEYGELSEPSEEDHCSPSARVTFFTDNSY
# [4] = biological target: Serine/threonine-protein kinase PAK 5 (Homo sapiens) (UniProt Q9P286); assay: Inhibition of human recombinant PAK5 at 500 nM related to control ULK1
# Serine/threonine-protein kinase PAK 5 (Homo sapiens), sequence (Q9P286 whole entry, looked up): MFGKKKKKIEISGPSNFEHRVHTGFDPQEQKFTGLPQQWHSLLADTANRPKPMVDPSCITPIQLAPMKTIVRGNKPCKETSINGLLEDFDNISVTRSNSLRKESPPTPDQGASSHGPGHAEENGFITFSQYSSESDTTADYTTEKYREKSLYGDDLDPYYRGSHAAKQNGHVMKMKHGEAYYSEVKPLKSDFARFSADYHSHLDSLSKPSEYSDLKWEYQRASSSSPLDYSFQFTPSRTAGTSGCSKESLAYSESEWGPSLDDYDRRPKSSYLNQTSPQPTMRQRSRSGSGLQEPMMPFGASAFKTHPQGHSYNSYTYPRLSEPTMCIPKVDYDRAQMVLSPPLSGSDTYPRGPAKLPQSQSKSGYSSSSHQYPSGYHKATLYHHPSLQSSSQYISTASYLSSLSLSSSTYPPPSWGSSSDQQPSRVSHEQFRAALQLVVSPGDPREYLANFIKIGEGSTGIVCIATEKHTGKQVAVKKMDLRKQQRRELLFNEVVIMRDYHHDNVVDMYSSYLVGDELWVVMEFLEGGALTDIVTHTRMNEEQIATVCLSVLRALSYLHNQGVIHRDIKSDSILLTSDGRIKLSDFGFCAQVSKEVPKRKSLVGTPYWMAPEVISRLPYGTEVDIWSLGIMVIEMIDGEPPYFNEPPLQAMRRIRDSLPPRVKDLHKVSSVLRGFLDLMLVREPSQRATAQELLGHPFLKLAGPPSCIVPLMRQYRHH
# [5] = biological target: Serine/threonine-protein kinase/endoribonuclease IRE1 (Homo sapiens) (UniProt O75460); assay: Inhibition of human recombinant IRE1 at 15 nM in presence of ATP by radiometric assay relative to control
# Serine/threonine-protein kinase/endoribonuclease IRE1 (Homo sapiens), sequence (O75460 19-977 limits assumed): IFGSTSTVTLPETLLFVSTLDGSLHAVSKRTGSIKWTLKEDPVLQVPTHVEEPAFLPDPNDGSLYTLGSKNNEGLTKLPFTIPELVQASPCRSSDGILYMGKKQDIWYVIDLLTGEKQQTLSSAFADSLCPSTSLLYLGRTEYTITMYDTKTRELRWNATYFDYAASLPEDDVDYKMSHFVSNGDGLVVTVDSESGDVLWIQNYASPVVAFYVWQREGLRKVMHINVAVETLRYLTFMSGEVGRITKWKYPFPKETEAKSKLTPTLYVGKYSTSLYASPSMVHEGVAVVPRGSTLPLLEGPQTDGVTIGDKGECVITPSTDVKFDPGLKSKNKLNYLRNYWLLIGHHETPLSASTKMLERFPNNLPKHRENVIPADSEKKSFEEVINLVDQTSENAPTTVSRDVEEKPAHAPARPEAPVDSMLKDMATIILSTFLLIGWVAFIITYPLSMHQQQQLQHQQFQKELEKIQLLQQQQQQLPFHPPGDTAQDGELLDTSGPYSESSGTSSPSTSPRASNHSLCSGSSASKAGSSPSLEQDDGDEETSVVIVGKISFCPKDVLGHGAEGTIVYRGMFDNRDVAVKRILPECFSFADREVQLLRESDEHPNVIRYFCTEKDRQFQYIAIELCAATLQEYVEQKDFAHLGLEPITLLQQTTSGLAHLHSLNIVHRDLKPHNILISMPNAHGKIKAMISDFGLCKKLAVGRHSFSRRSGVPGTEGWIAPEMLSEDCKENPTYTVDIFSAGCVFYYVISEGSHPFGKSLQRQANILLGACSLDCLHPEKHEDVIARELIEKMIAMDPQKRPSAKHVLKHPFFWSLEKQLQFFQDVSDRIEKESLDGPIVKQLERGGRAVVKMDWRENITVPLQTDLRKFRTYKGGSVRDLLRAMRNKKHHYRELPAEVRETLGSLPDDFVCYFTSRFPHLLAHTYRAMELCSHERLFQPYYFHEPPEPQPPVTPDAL
# [6] = biological target: T2, Serine/threonine-protein kinase 17B (Homo sapiens) (UniProt O94768); assay: Inhibition of human recombinant DRAK2 at 15 nM related to control ULK1
# T2 sequence (whole entry): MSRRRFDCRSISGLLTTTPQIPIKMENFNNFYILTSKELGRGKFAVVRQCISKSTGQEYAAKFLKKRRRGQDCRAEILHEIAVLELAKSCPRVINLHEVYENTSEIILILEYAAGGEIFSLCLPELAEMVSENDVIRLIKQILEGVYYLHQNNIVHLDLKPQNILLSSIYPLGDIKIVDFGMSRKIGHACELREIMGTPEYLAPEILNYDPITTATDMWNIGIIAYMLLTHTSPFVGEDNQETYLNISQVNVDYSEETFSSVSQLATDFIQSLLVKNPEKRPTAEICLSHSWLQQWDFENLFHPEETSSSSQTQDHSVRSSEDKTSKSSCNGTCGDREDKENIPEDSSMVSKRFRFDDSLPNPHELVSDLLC
# [7] = biological target: Receptor tyrosine-protein kinase erbB-2 (Homo sapiens) (UniProt P04626); assay: Inhibition of human recombinant ErbB2 at 15 nM related to control ULK1
# Receptor tyrosine-protein kinase erbB-2 (Homo sapiens), sequence (P04626 whole entry): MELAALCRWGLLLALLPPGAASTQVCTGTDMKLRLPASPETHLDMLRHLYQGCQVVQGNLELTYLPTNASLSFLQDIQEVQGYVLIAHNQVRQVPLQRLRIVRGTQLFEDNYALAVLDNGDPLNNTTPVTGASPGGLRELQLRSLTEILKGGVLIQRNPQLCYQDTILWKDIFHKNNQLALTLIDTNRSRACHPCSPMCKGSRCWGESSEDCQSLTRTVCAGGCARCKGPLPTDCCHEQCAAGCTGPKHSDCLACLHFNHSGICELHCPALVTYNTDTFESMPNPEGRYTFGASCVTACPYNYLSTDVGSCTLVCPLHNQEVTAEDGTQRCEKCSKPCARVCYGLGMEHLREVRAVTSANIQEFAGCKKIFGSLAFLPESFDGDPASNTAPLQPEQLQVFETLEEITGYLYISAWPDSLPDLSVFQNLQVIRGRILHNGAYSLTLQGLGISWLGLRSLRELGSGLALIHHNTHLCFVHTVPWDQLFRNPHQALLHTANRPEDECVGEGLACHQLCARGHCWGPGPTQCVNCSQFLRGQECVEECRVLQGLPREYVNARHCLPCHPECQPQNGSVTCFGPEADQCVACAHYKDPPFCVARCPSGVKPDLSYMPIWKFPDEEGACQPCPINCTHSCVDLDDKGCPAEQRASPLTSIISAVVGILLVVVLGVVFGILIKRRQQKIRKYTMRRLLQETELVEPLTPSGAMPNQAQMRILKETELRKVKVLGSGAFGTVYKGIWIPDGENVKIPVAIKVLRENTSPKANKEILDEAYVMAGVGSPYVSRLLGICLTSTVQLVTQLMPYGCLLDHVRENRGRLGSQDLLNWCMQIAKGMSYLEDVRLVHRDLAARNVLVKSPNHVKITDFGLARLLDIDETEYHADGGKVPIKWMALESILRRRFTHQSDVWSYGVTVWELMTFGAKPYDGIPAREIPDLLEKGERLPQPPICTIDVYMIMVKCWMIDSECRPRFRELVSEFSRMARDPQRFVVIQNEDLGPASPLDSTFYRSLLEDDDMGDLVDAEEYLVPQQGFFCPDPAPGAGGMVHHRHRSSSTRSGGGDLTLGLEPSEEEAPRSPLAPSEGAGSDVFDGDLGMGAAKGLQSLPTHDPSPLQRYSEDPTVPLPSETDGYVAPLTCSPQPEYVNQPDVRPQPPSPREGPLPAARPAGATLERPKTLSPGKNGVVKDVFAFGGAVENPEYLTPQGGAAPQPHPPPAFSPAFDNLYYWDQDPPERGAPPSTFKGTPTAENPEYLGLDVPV
# [8] = biological target: T3, Serine/threonine-protein kinase Nek3 (Homo sapiens) (UniProt P51956); assay: Inhibition of human recombinant NEK3 at 15 nM related to control ULK1
# T3 sequence (whole entry): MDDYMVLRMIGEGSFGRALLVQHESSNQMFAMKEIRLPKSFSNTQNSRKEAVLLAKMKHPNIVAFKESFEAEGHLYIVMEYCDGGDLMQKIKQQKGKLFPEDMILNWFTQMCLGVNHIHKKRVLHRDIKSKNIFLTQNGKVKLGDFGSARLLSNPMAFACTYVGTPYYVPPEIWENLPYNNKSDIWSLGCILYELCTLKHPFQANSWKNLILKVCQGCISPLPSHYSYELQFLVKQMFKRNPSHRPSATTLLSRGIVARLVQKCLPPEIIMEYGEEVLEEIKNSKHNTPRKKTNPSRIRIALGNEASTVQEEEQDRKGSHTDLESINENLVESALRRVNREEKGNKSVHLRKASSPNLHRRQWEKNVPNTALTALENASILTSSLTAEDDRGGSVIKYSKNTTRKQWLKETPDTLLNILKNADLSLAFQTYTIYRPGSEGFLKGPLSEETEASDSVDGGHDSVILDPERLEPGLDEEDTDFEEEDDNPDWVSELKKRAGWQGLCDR
# Homo sapiens = species: Homo sapiens; assay: Inhibition of human recombinant p70S6K at 15 nM related to control ULK1
# Cyclin-dependent kinase-like 3 (Homo sapiens), sequence (Q8IVW4 whole entry, looked up): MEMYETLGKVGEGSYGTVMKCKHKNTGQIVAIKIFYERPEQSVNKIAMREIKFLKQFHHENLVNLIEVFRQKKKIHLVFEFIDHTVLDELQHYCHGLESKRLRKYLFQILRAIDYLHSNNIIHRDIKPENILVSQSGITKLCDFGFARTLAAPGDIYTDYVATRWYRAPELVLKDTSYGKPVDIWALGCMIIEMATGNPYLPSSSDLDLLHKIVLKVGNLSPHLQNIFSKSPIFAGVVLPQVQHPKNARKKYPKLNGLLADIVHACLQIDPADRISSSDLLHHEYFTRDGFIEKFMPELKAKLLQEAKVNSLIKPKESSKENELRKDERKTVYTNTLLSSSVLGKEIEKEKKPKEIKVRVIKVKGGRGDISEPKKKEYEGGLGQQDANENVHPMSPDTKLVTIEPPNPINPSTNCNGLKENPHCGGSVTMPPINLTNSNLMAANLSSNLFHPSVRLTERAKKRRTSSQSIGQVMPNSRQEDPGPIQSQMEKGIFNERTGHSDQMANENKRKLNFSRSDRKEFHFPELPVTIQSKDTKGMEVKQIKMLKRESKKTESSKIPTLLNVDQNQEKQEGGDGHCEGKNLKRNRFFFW
smiles,measurement,setting,value
O=C(N[C@@H](C1CC1)C(F)(F)F)c1cc(-c2cnn3cc(-c4ccc(F)cc4)cnc23)cs1,inhibition,[1],39%
same,fold change (FC),[2],0.07
CNC(=O)c1ccccc1Oc1nc(Nc2cc(OC)c(OC)c(OC)c2)ncc1Br,inhibition,[3],23%
same,fold change (FC),[4],0.07
CC(C)[C@H](NC(=O)c1cc(-c2cnn3cc(-c4ccc(OCCN5CCCCC5)cc4)cnc23)cs1)C(F)(F)F,inhibition,[5],0%
same,fold change (FC),[6],0.78
same,fold change (FC),[7],0
same,fold change (FC),[8],0.01
same,fold change (FC),Homo sapiens,0.19
